Common to all, as to test: ≥ marks a high value that may be exact or a test limit, other limits are often not marked, values filed in µg/mL are converted to µM
The subject of assay [1] is Candida albicans NCPF 1467.
Assay [2] relates to Escherichia coli NCTC 10418.
The test system of assay [3] is Staphylococcus aureus NCTC 10788.
In assay [4] the test system is Candida albicans ATCC 2002.
The subject of assay [5] is Escherichia coli ATCC 25922.
In assay [6] the test system is Pseudomonas aeruginosa CMCCB 10104.
Assay [7] has as its system Staphylococcus aureus ATCC 25923.
In assay [8] the test system is Cronobacter muytjensii ATCC 51329.
The subject of assay [9] is Cronobacter sakazakii ATCC BAA-894.
For assay [10], the system named is Cronobacter sakazakii DPC 6440.
Assay [11] has as its system Cronobacter sakazakii DSM 4485.
The test system of assay [12] is Escherichia coli NCIMB 11843.
For assay [13], the system named is Klebsiella pneumoniae NCIMB 13218.
For assay [14], the system named is Pseudomonas fluorescens NCIMB 9046.
Assay [15] relates to Salmonella enterica subsp. enterica serovar Typhimurium LT2.
Assay [16] concerns Staphylococcus aureus NCTC 8325-4.
Assay [17] has as its system Staphylococcus aureus Newman.
The subject of assay [18] is Staphylococcus aureus RF122.
Assay [19] deals with Staphylococcus aureus RN4220.
Assay [20] concerns Staphylococcus aureus SA113.
The next assay relates to Bacillus subtilis.
The test system of assay [21] is Escherichia coli DH5alpha.
In assay [22] the test system is Pseudomonas aeruginosa ATCC 27853.

MIC data for ten compounds are collected here from DBAASP.

Molecules are shown by their SMILES. In brackets after ≈: the same amount, converted by molar mass. Some results are limits rather than exact numbers.

As a reminder, the MIC is the lowest concentration found to suppress growth. In the case of `CC[C@H](C)[C@H](NC(=O)[C@H](CC(C)C)NC(=O)[C@H](CCCCN)NC(=O)[C@H](CCCCN)NC(=O)[C@@H](NC(=O)[C@H](CC(C)C)NC(=O)[C@H](CCCCN)NC(=O)[C@@H]1CCCN1C(=O)[C@@H](NC(=O)[C@H](CCSC)NC(=O)CNC(=O)[C@H](CC(C)C)NC(=O)[C@@H](N)Cc1ccccc1)[C@@H](C)CC)[C@@H](C)CC)C(=O)N[C@@H](CCCCN)C(=O)N[C@@H](C)C(=O)N[C@@H](Cc1ccccc1)C(=O)N[C@@H](CCCCN)C(=O)O` [FLGMIPKLIKKLIKAFK], the MIC amounted to 2.5 µM (≈ 4.97 µg/mL) in [1], 5 µM (≈ 9.94 µg/mL) in assay [2] and 5 µM (≈ 9.94 µg/mL) in assay [3].

As to `CC[C@H](C)[C@H](NC(=O)[C@H](C)NC(=O)[C@H](C)NC(=O)[C@@H]1CCCN1C(=O)[C@@H](NC(=O)[C@H](CC(C)C)NC(=O)[C@H](CO)NC(=O)[C@H](CC(C)C)NC(=O)[C@@H](N)Cc1ccccc1)[C@@H](C)CC)C(=O)N[C@@H](CO)C(=O)N[C@@H](C)C(=O)N[C@H](C(=O)N[C@@H](CO)C(=O)N[C@@H](C)C(=O)N[C@@H](CC(C)C)C(=O)N[C@@H](C)C(=O)N[C@@H](CC(N)=O)C(=O)N[C@@H](Cc1cnc[nH]1)C(N)=O)C(C)C` [FLSLIPAAISAVSALANH], the MIC in assay [1] is at least 132 µM; in assay [2] it was at least 264 µM; in assay [3], at least 33 µM.

In the case of `CC[C@H](C)[C@H](NC(=O)[C@H](Cc1cnc[nH]1)NC(=O)[C@@H]1CCCN1C(=O)[C@@H](NC(=O)[C@H](CC(C)C)NC(=O)[C@H](CO)NC(=O)[C@H](CC(C)C)NC(=O)[C@@H](N)Cc1ccccc1)[C@@H](C)CC)C(=O)N[C@H](C(=O)N[C@@H](CO)C(=O)NCC(=O)N[C@H](C(=O)N[C@@H](C)C(=O)N[C@@H](C)C(=O)N[C@@H](CC(C)C)C(=O)N[C@@H](C)C(=O)N[C@@H](CC(N)=O)C(=O)N[C@@H](Cc1cnc[nH]1)C(=O)N[C@@H](CC(C)C)C(N)=O)C(C)C)C(C)C` [FLSLIPHIVSGVAALANHL], the minimum inhibitory concentration (MIC) in assay [1], in assay [2] and in assay [3] was at least 200 µM in each case.

Consider `CC[C@H](C)[C@H](NC(=O)[C@H](CO)NC(=O)[C@H](CC(N)=O)NC(=O)[C@@H](NC(=O)[C@H](Cc1ccccc1)NC(=O)[C@H](C)NC(=O)[C@H](CO)NC(=O)[C@H](C)NC(=O)[C@H](Cc1ccccc1)NC(=O)[C@H](CC(=O)O)NC(=O)[C@H](CCCCN)NC(=O)[C@H](C)NC(=O)CNC(=O)[C@@H](NC(=O)[C@H](CCCCN)NC(=O)[C@H](CC(C)C)NC(=O)[C@H](CCCCN)NC(=O)[C@H](CCC(=O)O)NC(=O)[C@H](CC(C)C)NC(=O)[C@H](Cc1ccccc1)NC(=O)CN)[C@@H](C)O)C(C)C)C(=O)N[C@@H](CCCCN)C(=O)NCC(=O)N[C@H](C(=O)O)[C@@H](C)O` [GFLEKLKTGAKDFASAFVNSIKGT], for which the MIC in assay [1], in assay [2] and in [3] was at least 202 µM in each case.

Consider `CC[C@H](C)[C@H](NC(=O)CN)C(=O)NCC(=O)NCC(=O)N[C@@H](C)C(=O)N[C@@H](CC(C)C)C(=O)N[C@@H](CC(C)C)C(=O)N[C@@H](CO)C(=O)N[C@@H](C)C(=O)NCC(=O)N[C@@H](CCCCN)C(=O)N[C@@H](C)C(=O)N[C@@H](C)C(=O)N[C@@H](CC(C)C)C(=O)N[C@@H](CCCCN)C(=O)NCC(=O)N[C@@H](CC(C)C)C(=O)N[C@@H](C)C(=O)N[C@@H](CCCCN)C(=O)NCC(=O)N[C@@H](CC(C)C)C(=O)N[C@@H](C)C(=O)N[C@@H](CCC(=O)O)C(=O)N[C@@H](Cc1cnc[nH]1)C(=O)N[C@@H](Cc1ccccc1)C(=O)N[C@@H](C)C(=O)N[C@@H](CC(N)=O)C(N)=O` [GIGGALLSAGKAALKGLAKGLAEHFAN], for which the MIC in assay [1] worked out at 6 µM (≈ 15.2 µg/mL); in assay [2], 12 µM (≈ 30.4 µg/mL); in assay [3], 3 µM (≈ 7.6 µg/mL).

On to `CC[C@H](C)[C@H](NC(=O)[C@H](CC(C)C)NC(=O)[C@H](CCC(N)=O)NC(=O)[C@@H](NC(=O)[C@H](C)NC(=O)CNC(=O)[C@H](CCCCN)NC(=O)[C@@H](NC(=O)[C@H](CC(C)C)NC(=O)[C@@H](NC(=O)[C@H](Cc1ccccc1)NC(=O)[C@@H](NC(=O)CN)C(C)C)[C@@H](C)O)[C@@H](C)CC)[C@@H](C)O)C(=O)NCC(=O)N[C@@H](CCCCN)C(=O)N[C@H](C(=O)N[C@@H](CC(C)C)C(=O)NCC(=O)N[C@@H](CCCCN)C(=O)N[C@@H](CCC(=O)O)C(=O)N[C@@H](CC(C)C)C(=O)NCC(=O)N[C@@H](CCCCN)C(=O)N[C@H](C(=O)NCC(=O)N[C@@H](CC(C)C)C(=O)N[C@@H](CCC(=O)O)C(=O)N[C@H](C(=O)N[C@@H](CCSC)C(=O)N[C@@H](C)C(=O)N[C@H]1CSSC[C@@H](C(=O)O)NC(=O)[C@H](CCC(N)=O)NC(=O)[C@H](CCCCN)NC(=O)[C@H]([C@@H](C)O)NC(=O)[C@H]([C@@H](C)CC)NC(=O)[C@H](CCCCN)NC1=O)[C@@H](C)CC)[C@@H](C)O)[C@@H](C)O` [GVFTLIKGATQLIGKTLGKELGKTGLEIMACKITKQC], for which the minimum inhibitory concentration (MIC) was 2.03 µM (≈ 7.9 µg/mL) in [4], 4.06 µM (≈ 15.8 µg/mL) in assay [5], 4.06 µM (≈ 15.8 µg/mL) in assay [6] and 4.06 µM (≈ 15.8 µg/mL) in [7].

As for `CC[C@H](C)[C@H](N)C(=O)N[C@@H](Cc1cnc[nH]1)C(=O)N[C@@H](Cc1cnc[nH]1)C(=O)N[C@@H](CCC(N)=O)C(=O)NCC(=O)N[C@@H](CC(C)C)C(=O)N1CCC[C@H]1C(=O)N[C@@H](CCC(N)=O)C(=O)N[C@@H](CCC(=O)O)C(=O)O` [IHHQGLPQE], the minimal inhibitory concentration (MIC) is at least 2500 µM in assay [8]; at least 1250 µM in assay [9]; at least 1250 µM in assay [10]; at least 2500 µM in assay [11]; at least 2500 µM in assay [12]; at least 2500 µM in assay [13]. In addition, the MIC in assay [14], in [15], in [16], in assay [17], in [18] and in assay [19] was at least 2500 µM in each case. In addition, the MIC in assay [20] is at least 2500 µM.

As to `CC[C@H](C)[C@H](NC(=O)[C@H](C)NC(=O)[C@@H]1CCCN1C(=O)[C@H](CCCN=C(N)N)NC(=O)[C@@H](N)CC(C)C)C(=O)N[C@@H](CC(C)C)C(=O)N[C@H](C(=O)N[C@@H](CCCN=C(N)N)C(=O)N[C@H](C(=O)N[C@@H](CCCCN)C(N)=O)[C@@H](C)O)C(C)C` [LRPAILVRTK], the minimal inhibitory concentration (MIC) in [1], in assay [2] and in assay [3] was at least 439 µM each time.

As to `CC[C@H](C)[C@H](NC(=O)[C@H](C)NC(=O)[C@@H](N)C(C)C)C(=O)N[C@@H](Cc1ccc(O)cc1)C(=O)NCC(=O)N[C@@H](CCCN=C(N)N)C(=O)N[C@@H](CC(=O)O)C(=O)N[C@@H](CC(=O)O)C(=O)N[C@@H](CCCN=C(N)N)C(=O)N[C@@H](CO)C(=O)N[C@@H](CC(=O)O)C(=O)N[C@H](C(=O)N[C@H]1CSSC[C@@H](C(=O)N[C@@H](CC(=O)O)C(=O)N[C@H](C(=O)N[C@@H](Cc2ccc(O)cc2)C(=O)O)[C@@H](C)O)NC(=O)[C@H](C(C)C)NC(=O)[C@H](CC(C)C)NC(=O)[C@H](Cc2c[nH]c3ccccc23)NC(=O)[C@H](CC(N)=O)NC(=O)[C@H](Cc2cnc[nH]2)NC(=O)[C@H](CCC(N)=O)NC(=O)[C@H](C(C)C)NC(=O)[C@H](CCC(N)=O)NC(=O)[C@H](CCCN=C(N)N)NC1=O)C(C)C` [VAIYGRDDRSDVCRQVQHNWLVCDTY], the MIC in assay [4] was at least 64.3 µM; in assay [5] it was above 64.3 µM; in assay [6], at least 64.3 µM; in assay [7], above 64.3 µM.

As for `CC[C@H](C)[C@H](NC(=O)[C@H](Cc1ccccc1)NC(=O)[C@@H](NC(=O)[C@H](Cc1ccccc1)NC(=O)[C@H](CCCN=C(N)N)NC(=O)[C@H](CCCCN)NC(=O)[C@H](CCCN=C(N)N)NC(=O)[C@H](CCCCN)NC(=O)[C@H](Cc1ccccc1)NC(=O)[C@H](CC(C)C)NC(=O)[C@@H](NC(=O)[C@@H](N)Cc1ccc(O)cc1)C(C)C)[C@@H](C)CC)C(=O)O` [YVLFKRKRFIFI], the MIC was at least 200 µM in the assay with Bacillus subtilis, at least 50 µM in assay [21], above 200 µM in assay [22] and 200 µM (≈ 326 µg/mL) in assay [7].
